Measured values from article PMC10435995 (Life Science Alliance, 2023).

Biological target: T1, hDHFR (dihydrofolate reductase) (Homo sapiens, UniProt P00374)
T1 construct: gene DHFR; recombinant hDHFR (8456-DR-100; R&D Systems)
T1 sequence (P00374 1-187): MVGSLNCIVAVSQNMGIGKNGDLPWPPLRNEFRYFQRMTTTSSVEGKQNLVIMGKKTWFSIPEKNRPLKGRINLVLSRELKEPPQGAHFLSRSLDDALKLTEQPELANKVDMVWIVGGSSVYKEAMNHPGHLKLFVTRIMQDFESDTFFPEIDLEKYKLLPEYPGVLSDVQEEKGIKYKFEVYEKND
Assay: ITC at […]°C without NADPH (also enzyme inhibition, CETSA, TPP)
Type: binding
Settings: read-out: Average Kd (±s.d.)

Kd: 28.1 ± 18.4 nM
SMILES: Cc1nc(N)nc(N)c1/C=C/C1(c2ccc(C(F)(F)F)cc2)CC1 [C1]
